Results from patent US20240140949A1, “ANTI-CANCER PHARMACEUTICAL COMPOSITION FOR TARGETING HEAT SHOCK PROTEIN 70, CONTAINING INDOLOQUINAZOLIDINE ALKALOID” (SEOUL NATIONAL UNIVERSITY R & DB FOUNDATION, priority 2021, published 2024).
One block for each compound: values may come before it.

How the values were obtained:
H1299 lung cancer cells = assay: Cell viability (MTT assay) in H1299 cells; assay type: cell-based, human; settings: 0.5-10 μM, 3 days, MTT (FIG. 9-12)
Excerpt: (§1) Human lung cancer cell lines (H1299, H460, A549, H226B, and PC9), breast cancer cell line (MDA-MB-231), liver cancer cell line (Hep3B), kidney cancer cell line (786-0), prostate cancer cell lines (DU145 and PC-3), and mouse lung cancer cell line (Lewis Lung Carcinoma, LLC) were purchased from ATCC (American Type Culture Collection) or obtained from Dr. John V. Heymach of MD Anderson Cancer Center, USA. The human head and neck cancer cell line (UMSCC38) was obtained from Dr. Jeffrey N. Myers (MD Anderson Cancer Center, USA). Human colon cancer cell lines (HCT116 and HT-29) and glioblastoma cell line (U87MG) were obtained from Professor Sang Kook Lee (Seoul National University College of Pharmacy). The human kidney cancer cell line (Caki-1), and gastric cancer cell line (SNU-638) were purchased from the Korean Cell Line Bank. The chemotherapy-resistant cells [paclitaxel-resistant H460 cells (H460/PcR), paclitaxel-resistant H226B cells (H226B/PcR), cisplatin-resistant H1299 cells (H1299/CsR), pemetrexed-resistant H1299 cells (H1299/PmR)] and molecularly targeted anticancer therapy-resistant cells [erlotinib-resistant PC9 cells (PC9/ER)] were constructed by treating the respective anti-cancer drugs for more than three months. H1299, H460, H226B, PC9, Hep3B, 786-0, DU145, PC-3, HCT116, HT-29, SNU-638, chemotherapeutic resistant cells, and molecularly targeted anticancer therapy-resistant cells were cultured in RPMI 1640 media containing 10% fetal bovine serum (FBS) and antibiotics at 37° C. under 5% CO2 conditions, while MDA-MB-231, UMSCC38, U87MG, Caki-1 were cultured in DMEM media containing 10% FBS and antibiotics at 37° C. under 5% CO2 conditions. Cells were passaged 1-2 times per week.
(§2) The cancer cell lines were seeded in a 96-well plate at a density of 2×10^3 cells per well and cultured for 24 hours to allow the cells to attach. The cells were then treated with diluted drugs in media for 3 days and cell viability was assessed using MTT assay or crystal violet (CB) assay. For the MTT assay, MTT solution dissolved in PBS was added to achieve a final concentration of 500 μg/mL and incubated for 2-4 hours, after which the medium was removed and the formed formazan was dissolved in 100% DMSO, followed by measuring the absorbance at 570 nm. For the CB assay, the cultured cells were fixed with 100% methanol, stained with a 0.025% crystal violet solution, dissolved in 1% SDS solution, and the absorbance was measured at 570 nm. Cell viability was calculated as the percentage of absorbance change in drug-treated group compared to vehicle (DMSO) treated control group.

[1] = tested on: various lung cancer cells and chemotherapeutic drug-resistant lung cancer cell lines; assay: Anchorage-dependent colony formation in lung cancer and drug-resistant lung cancer cell lines; assay type: cell-based, human; settings: 0.5 μM (FIG. 14, 16)
Excerpt: Human lung cancer cell lines (H1299, H460, A549, H226B, and PC9), breast cancer cell line (MDA-MB-231), liver cancer cell line (Hep3B), kidney cancer cell line (786-0), prostate cancer cell lines (DU145 and PC-3), and mouse lung cancer cell line (Lewis Lung Carcinoma, LLC) were purchased from ATCC (American Type Culture Collection) or obtained from Dr. John V. Heymach of MD Anderson Cancer Center, USA. The human head and neck cancer cell line (UMSCC38) was obtained from Dr. Jeffrey N. Myers (MD Anderson Cancer Center, USA). Human colon cancer cell lines (HCT116 and HT-29) and glioblastoma cell line (U87MG) were obtained from Professor Sang Kook Lee (Seoul National University College of Pharmacy). The human kidney cancer cell line (Caki-1), and gastric cancer cell line (SNU-638) were purchased from the Korean Cell Line Bank. […]
Cancer cell lines were seeded in a 24-well or 6-well plate at 100-250 cells per well and allowed to attach, followed by treatment with drugs diluted in media and cultured for 2-3 weeks. Formed colonies were stained with crystal violet and counted. The drug's colony formation inhibitory effect was calculated as the percentage of colony number change in the drug-treated group compared to the vehicle (DMSO)-treated control group.

[2] = tested on: various lung cancer cell lines and chemotherapeutic agent-resistant lung cancer cell lines; assay: Cell viability in lung cancer and chemotherapeutic drug-resistant lung cancer cell lines; assay type: cell-based, human; settings: lung cancer and chemotherapeutic agent-resistant lung cancer cell lines (FIG. 13, 15)
Excerpt: Human lung cancer cell lines (H1299, H460, A549, H226B, and PC9), breast cancer cell line (MDA-MB-231), liver cancer cell line (Hep3B), kidney cancer cell line (786-0), prostate cancer cell lines (DU145 and PC-3), and mouse lung cancer cell line (Lewis Lung Carcinoma, LLC) were purchased from ATCC (American Type Culture Collection) or obtained from Dr. John V. Heymach of MD Anderson Cancer Center, USA. The human head and neck cancer cell line (UMSCC38) was obtained from Dr. Jeffrey N. Myers (MD Anderson Cancer Center, USA). […]
as §2, with “Cell viability was calculated as the percentage of absorbance change in drug-treated group compared to vehicle (DMSO) treated control group.” left out

[3] = tested on: Hsp70 protein and Hsp70/Hsp90 client proteins (Akt, Src, and MEK); assay: Western blot of Hsp70 and client proteins in lung cancer cells; assay type: cell-based, human; settings: for expression of Hsp70 protein and Hsp70/Hsp90 client proteins (Akt, Src, and MEK): H1299 cells, up to 250 nM, 2 days (FIG. 17)
Excerpt: as §1
The cells treated with the drug were treated with RIPA lysis buffer [50 mM Tris-HCl (pH 7.4), 150 mM NaCl, 1 mM EDTA, 0.25% sodium deoxycholate, 1% Triton X-100, 100 mM NaF, 5 mM Na3VO4, 1 mM PMSF, 1 μg/mL aprotinin, 1 μg/mL leupeptin, and 1 μg/mL pepstatin], followed by incubation on ice for 10 minutes and centrifugation at 13,000 rpm for 15 minutes to extract proteins. The proteins were quantified by BCA assay and equal amounts of proteins were separated by 8-10% SDS-PAGE. The separated proteins were transferred to a PVDF membrane, and the areas of the membrane not transferred with protein were blocked by incubating the membrane in 5% skim milk solution or 3% BSA solution diluted in TBST at room temperature for 1 hour. The membrane was then incubated in a primary antibody solution diluted 1:1,000 in 3% BSA at 4° C. for more than 12 hours. The primary antibody used was either anti-Hsp70 or anti-actin, with the anti-Hsp70 antibody obtained from Enzo Life Science and the actin antibody obtained from Santa Cruz Biotechnology. After incubation, the membrane was washed for 1 hour while changing TBST several times, and then incubated for 1 hour at room temperature with a secondary antibody (GeneTex) diluted 1:5,000 in 5% skim milk solution. After incubation, the membrane was washed for 1 hour while changing TBST several times, and then treated with an enhanced chemiluminescence (ECL) solution. The expression of Hsp70 or Actin protein was detected using LAS4000.

lung cancer cell = assay: Cancer cell survival inhibitory activity (MTT assay) of EV501 to EV509; assay type: cell-based; settings: 0.5 μM (lowest concentration), MTT assay (FIG. 18)
Description: as §2

cancer cell = assay: Cancer cell survival inhibitory activity (crystal violet assay); assay type: cell-based; settings: crystal violet assay (FIG. 19)
Description: as §2

lung cancer cells = assay: Anchorage-independent (soft agar) colony formation; assay type: cell-based; settings: soft agar (FIG. 20)
Description: Before the experiment, a 1% agar solution made with low-melting agar was placed in a 24-well plate and hardened at room temperature to create a bottom agar. The cells were diluted with medium to seed 2×10^3 cells per well in a 24-well plate. Then, it was mixed with a 1% agar solution to create a final 0.4% agar solution, which was then solidified at room temperature in the plate containing the bottom agar. Medium containing the drug was added on top of the cells mixed in the agar and cultured for 1-3 weeks at 37° C. in a 5% CO2 condition, after which the formed colonies were stained with an MTT solution of 250-500 μg/mL and counted. The colony formation inhibitory effect of the drug was calculated by expressing the change in colony numbers in the drug-treated group compared to the vehicle (DMSO) treated control group as a percentage.

SMILES: C#CCN1c2ccccc2C(=O)N2CCc3c([nH]c4ccccc34)C21 (stereo not drawn) [EV205, 14N-propagyl Evodiamine]
lung cancer cell death (cell viability) (H1299 lung cancer cells): excellent effects

SMILES: C=CCN1c2ccccc2C(=O)N2CCc3c([nH]c4ccccc34)C21 (stereo not drawn) [EV206, 14N-Allyl Evodiamine]
formation of colonies under anchorage-dependent (adherent) conditions [1]: significantly inhibited | growth-inhibitory effect [2]: excellent growth-inhibitory effects | expression of Hsp70 protein and Hsp70/Hsp90 client proteins (Akt, Src, and MEK) [3]: clear reduction | lung cancer cell death (cell viability) (H1299 lung cancer cells): excellent effects

SMILES: CC(C)=CCN1c2ccccc2C(=O)N2CCc3c([nH]c4ccccc34)C21 (stereo not drawn) [EV217]
lung cancer cell death (cell viability) (H1299 lung cancer cells): excellent effects

SMILES: C=C(C)CN1c2ccccc2C(=O)N2CCc3c([nH]c4ccccc34)C21 (stereo not drawn) [EV218, 14N-(2-methyl)allyl evodiamine]
lung cancer cell death (cell viability) (H1299 lung cancer cells): excellent effects

SMILES: CC#CCN1c2ccccc2C(=O)N2CCc3c([nH]c4ccccc34)C21 (stereo not drawn) [EV219]
lung cancer cell death (cell viability) (H1299 lung cancer cells): excellent effects

SMILES: CN1c2ccc(F)cc2C(=O)N2CCc3c([nH]c4ccccc34)C21 (stereo not drawn) [EV301]
lung cancer cell death (cell viability) (H1299 lung cancer cells): excellent effects

SMILES: COc1ccc2c(c1)C(=O)N1CCc3c([nH]c4ccccc34)C1N2C (stereo not drawn) [EV302]
lung cancer cell death (cell viability) (H1299 lung cancer cells): excellent effects

SMILES: CN1c2ccc([N+](=O)[O-])cc2C(=O)N2CCc3c([nH]c4ccccc34)C21 (stereo not drawn) [EV303]
lung cancer cell death (cell viability) (H1299 lung cancer cells): excellent effects

SMILES: CN1c2ccc(Cl)cc2C(=O)N2CCc3c([nH]c4ccccc34)C21 (stereo not drawn) [EV304]
lung cancer cell death (cell viability) (H1299 lung cancer cells): excellent effects

SMILES: CN1c2ccc(Br)cc2C(=O)N2CCc3c([nH]c4ccccc34)C21 (stereo not drawn) [EV306]
lung cancer cell death (cell viability) (H1299 lung cancer cells): excellent effects

SMILES: Cc1ccc2c(c1)C(=O)N1CCc3c([nH]c4ccccc34)C1N2C (stereo not drawn) [EV307]
lung cancer cell death (cell viability) (H1299 lung cancer cells): excellent effects

SMILES: CN1c2cccc(Cl)c2C(=O)N2CCc3c([nH]c4ccccc34)C21 (stereo not drawn) [EV308]
lung cancer cell death (cell viability) (H1299 lung cancer cells): excellent effects

SMILES: COc1cccc2c1C(=O)N1CCc3c([nH]c4ccccc34)C1N2C (stereo not drawn) [EV309]
lung cancer cell death (cell viability) (H1299 lung cancer cells): excellent effects

SMILES: CN1c2ccc(I)cc2C(=O)N2CCc3c([nH]c4ccccc34)C21 (stereo not drawn) [EV310]
lung cancer cell death (cell viability) (H1299 lung cancer cells): excellent effects

SMILES: CN1c2ccccc2C(=O)N2CCc3c([nH]c4ccc([N+](=O)[O-])cc34)C21 (stereo not drawn) [EV401]
lung cancer cell death (cell viability) (H1299 lung cancer cells): excellent effects

SMILES: CN1c2ccccc2C(=O)N2CCc3c([nH]c4c([N+](=O)[O-])cc([N+](=O)[O-])cc34)C21 (stereo not drawn) [EV402]
lung cancer cell death (cell viability) (H1299 lung cancer cells): excellent effects

SMILES: COc1ccc2[nH]c3c(c2c1)CCN1C(=O)c2ccccc2N(C)C31 (stereo not drawn) [EV403]
lung cancer cell death (cell viability) (H1299 lung cancer cells): excellent effects

SMILES: Cc1ccc2[nH]c3c(c2c1)CCN1C(=O)c2ccccc2N(C)C31 (stereo not drawn) [EV406]
lung cancer cell death (cell viability) (H1299 lung cancer cells): excellent effects

SMILES: CN1c2ccccc2C(=O)N2CCc3c([nH]c4ccc(Cl)cc34)C21 (stereo not drawn) [EV407]
lung cancer cell death (cell viability) (H1299 lung cancer cells): excellent effects

SMILES: CN1c2ccccc2C(=O)N2CCc3c([nH]c4ccc(O)cc34)C21 (stereo not drawn) [EV408]
formation of colonies under anchorage-dependent (adherent) conditions [1]: significantly inhibited | growth-inhibitory effect [2]: excellent growth-inhibitory effects | expression of Hsp70 protein and Hsp70/Hsp90 client proteins (Akt, Src, and MEK) [3]: clear reduction | lung cancer cell death (cell viability) (H1299 lung cancer cells): excellent effects

SMILES: CCCOc1ccc2[nH]c3c(c2c1)CCN1C(=O)c2ccccc2N(C)C31 (stereo not drawn) [EV413]
lung cancer cell death (cell viability) (H1299 lung cancer cells): excellent effects

melting point: 186 to 188 °C
SMILES: C=CCN1c2ccccc2C(=O)N2CCc3c([nH]c4ccc([N+](=O)[O-])cc34)C21 (stereo not drawn) [EV501]
inhibition at 0.5 µM (lung cancer cell): > 65% | cancer cell survival inhibitory activity (cancer cell): as excellent as EV507 | expression of Hsp70 and Src and Akt (client proteins of Hsp70/Hsp90) ([3]; Western blot (FIG. 21)): decrease | anchorage-independent colony formation (lung cancer cells): effectively inhibited

melting point: 261 to 262 °C
SMILES: C=C(C)CN1c2ccccc2C(=O)N2CCc3c([nH]c4ccc([N+](=O)[O-])cc34)C21 (stereo not drawn) [EV502]
inhibition at 0.5 µM (lung cancer cell): > 50%

SMILES: C=CCN1c2ccccc2C(=O)N2CCc3c([nH]c4c([N+](=O)[O-])cc([N+](=O)[O-])cc34)C21 (stereo not drawn) [EV503]
inhibition at 0.5 µM (lung cancer cell): > 50% | melting point: 229 to 231 °C

SMILES: C=C(C)CN1c2ccccc2C(=O)N2CCc3c([nH]c4c([N+](=O)[O-])cc([N+](=O)[O-])cc34)C21 (stereo not drawn) [EV504]
cancer cell survival inhibitory activity (cancer cell): as excellent as EV507 | melting point: 175 to 177 °C

SMILES: C#CCN1c2ccccc2C(=O)N2CCc3c([nH]c4c([N+](=O)[O-])cc([N+](=O)[O-])cc34)C21 (stereo not drawn) [EV506]
inhibition at 0.5 µM (lung cancer cell): > 50% | melting point: 232 to 234 °C

melting point: 230 to 232 °C
SMILES: C#CCN1c2ccccc2C(=O)N2CCc3c([nH]c4ccc(O)cc34)C21 (stereo not drawn) [EV508]
inhibition at 0.5 µM (lung cancer cell): > 65% | cancer cell survival inhibitory activity (cancer cell): as excellent as EV507 | anchorage-independent colony formation (lung cancer cells): effectively inhibited

melting point: 211 to 213 °C
SMILES: C=C(C)CN1c2ccccc2C(=O)N2CCc3c([nH]c4ccc(O)cc34)C21 (stereo not drawn) [EV509]
inhibition at 0.5 µM (lung cancer cell): > 65% | cancer cell survival inhibitory activity (cancer cell): as excellent as EV507 | anchorage-independent colony formation (lung cancer cells): effectively inhibited
